US20040266718A1, “Inhibition of specific histone deacetylase isoforms” (priority 2001, published 2004)
d = 2'-deoxy (DNA); m = 2'-O-methyl

Columns and labels:
human HDAC-7 RNA = assay: antisense screen by Northern blot in T24 cells, HDAC-7; format: cell-based; settings: screened as above (T24 cells, 100 nM, 24 hours)
Method: Eighteen phosphorothioate ODNs containing sequences complementary to the 5′ or 3′ untranslated regions of the human HDAC-7 gene (GenBank Accession No. AF239243) were screened as above.
(§1) Briefly, human A549 and/or T24 human bladder carcinoma cells were seeded in 10 cm tissue culture dishes one day prior to oligonucleotide treatment. The cell lines were obtained from the American Type Culture Collection (ATCC) (Manassas, Va.) and were grown under the recommended culture conditions. Before the addition of the oligonucleotides, cells were washed with PBS (phosphate buffered saline). Next, lipofectin transfection reagent (GIBCO BRL Mississauga, Ontario, Calif.), at a concentration of 6.25 μg/ml, was added to serum free OPTIMEM medium (GIBCO BRL, Rockville, Md.), which was then added to the cells. The oligonucleotides to be screened were then added directly to the cells (i.e., one oligonucleotide per plate of cells). Mismatched oligonucleotides were used as controls. The same concentration of oligonucleotide (e.g., 50 nM) was used per plate of cells for each oligonucleotide tested.
Cells were harvested, and total RNAs were analyzed by Northern blot analysis. Briefly, total RNA was extracted using RNeasy miniprep columns (QIAGEN). Ten to twenty μg of total RNA was run on a formaldehyde-containing 1% agarose gel with 0.5 M sodium phosphate (pH 7.0) as the buffer system. […]

[1] = test system: acetylated histone H-4 in T24 human bladder cancer cells; assay: inhibition of HDAC activity in whole cells (acetylated histone H-4 Western blot); format: cell-based; settings: 16 hours
Method: T24 human bladder cancer cells (ATCC, Manassas, Va.) growing in culture were incubated with test compounds for 16 hours. Histones were extracted from the cells by standard procedures (see e.g. Yoshida et al., supra) after the culture period. Twenty μg total core histone protein was loaded onto SDS/PAGE and transferred to nitrocellulose membranes, which were then reacted with polyclonal antibody specific for acetylated histone H-4 (Upstate Biotech Inc., Lake Placid, […].). Horse Radish Peroxidase conjugated secondary antibody was used at a dilution of 1:5000 to detect primary antibody binding. The secondary antibody binding was visualized by use of the Enhanced chemiluminescence (ECL) detection kit (Amersham-Pharmacia Biotech., Inc., Piscataway, N.J.). After exposure to film, acetylated H-4 signal was quantitated by densitometry.

[2] = test system: Human cancer HCT116 cells; assay: cell cycle arrest by FACS; format: cell-based; settings: HCT116, 16 hours; concentration to induce a (G2+M)/S ratio of 2.5
Method: Human cancer HCT116 cells were plated at 2×10^5 per 10-cm dish and were left to attach to the dish overnight in the incubator. Cells were treated with small molecule inhibitors at various concentrations (1 uM and 10 uM, typically, dissolved in DMSO) for 16 hours. Cells were harvested by trypsinization and washed once in 1×PBS (phosphate buffered saline). The cells were resuspended in about 200 ul 1×PBS and were fixed by slowly adding 1 ml 70% ethanol at −20° C. and were left at least overnight at −20° C. Fixed cells were centrifuged at low speed (1,000 rpm) for 5 minutes, and the cell pellets were washed again with 1×PBS. Nucleic acids from fixed cells were incubated in a staining solution (0.1% (w/v) glucose in 1×PBS containing 50 ug/ml propidium iodide) (Sigma-Aldridge, Mississauga, Ontario, CA) and RNase A (final 100 units/ml, (Sigma-Aldridge, Mississauga, Ontario, CA) for at least 30 minutes in the dark at 25° C. DNA content was measured by using a fluorescence-activated cell sorter (FACS) machine. Treatment of cells with all HDAC small molecule inhibitors in Table 2 results in a significant accumulation of cancer cell in G2/M phase of the cell cycle and concomitantly reduce the accumulation of cancer cells in S phase of the cell cycle. The ratio of cells in G2/M phase vs. cells in the S. phase was determined. […]

human HDAC-3 = target: T1, human HDAC-3 (Homo sapiens, UniProt O15379); assay: histone deacetylase enzyme assay, HDAC-3; format: biochemical; settings: recombinant human enzyme, [3H]-acetylated histone substrate, 2 hours; read-out: Enzyme IC50 (μM) HDAC3
T1 construct: made in house; host or cells: insect cells (baculovirus expression system)
T1 sequence (O15379 whole entry): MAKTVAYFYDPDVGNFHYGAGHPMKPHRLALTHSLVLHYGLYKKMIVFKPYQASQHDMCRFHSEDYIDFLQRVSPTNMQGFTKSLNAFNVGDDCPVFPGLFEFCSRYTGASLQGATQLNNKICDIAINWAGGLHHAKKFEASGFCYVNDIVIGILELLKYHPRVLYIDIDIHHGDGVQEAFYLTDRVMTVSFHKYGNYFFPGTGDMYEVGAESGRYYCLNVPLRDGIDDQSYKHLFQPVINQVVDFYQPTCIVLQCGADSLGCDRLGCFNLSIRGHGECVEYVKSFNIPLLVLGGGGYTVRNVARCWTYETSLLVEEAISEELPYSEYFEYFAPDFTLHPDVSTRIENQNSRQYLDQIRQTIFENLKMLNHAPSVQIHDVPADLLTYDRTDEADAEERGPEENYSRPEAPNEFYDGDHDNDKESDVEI
Method: (§2) The other HDAC isotypes, HDAC-3 and HDAC-4, were purified directly on an anti-Flag affinity column.
(§3) For the deacetylase assay, 20,000 cpm of an [^3H]-metabolically-labeled acetylated histone was used as a substrate. Histones were incubated with cloned recombinant human HDAC enzymes at 37° C. […] All assay conditions were pre-determined to be certain that each reaction was linear. Reactions were stopped by adding acetic acid (0.04 M, final concentration) and HCl (250 mM, final concentration). The mixture was extracted with ethyl acetate, and the released [^3H]-acetic acid was quantified by liquid scintillation counting. For the inhibition studies, HDAC enzyme was preincubated with test compounds for 30 minutes at 4° C. prior to the start of the enzymatic assay. IC50 values for HDAC enzyme inhibitors were identified with dose response curves for each individual compound and, thereby, obtaining a value for the concentration of inhibitor that produced fifty percent of the maximal inhibition.

human HDAC-6 = target: T2, human HDAC-6 (Homo sapiens, UniProt Q9UBN7); assay: histone deacetylase enzyme assay, HDAC-6; format: biochemical; settings: recombinant human enzyme, [3H]-acetylated histone substrate, 2 hours; read-out: Enzyme IC50 (μM) HDAC6
T2 construct: made in house; host or cells: insect cells (baculovirus expression system)
T2 sequence (Q9UBN7 whole entry): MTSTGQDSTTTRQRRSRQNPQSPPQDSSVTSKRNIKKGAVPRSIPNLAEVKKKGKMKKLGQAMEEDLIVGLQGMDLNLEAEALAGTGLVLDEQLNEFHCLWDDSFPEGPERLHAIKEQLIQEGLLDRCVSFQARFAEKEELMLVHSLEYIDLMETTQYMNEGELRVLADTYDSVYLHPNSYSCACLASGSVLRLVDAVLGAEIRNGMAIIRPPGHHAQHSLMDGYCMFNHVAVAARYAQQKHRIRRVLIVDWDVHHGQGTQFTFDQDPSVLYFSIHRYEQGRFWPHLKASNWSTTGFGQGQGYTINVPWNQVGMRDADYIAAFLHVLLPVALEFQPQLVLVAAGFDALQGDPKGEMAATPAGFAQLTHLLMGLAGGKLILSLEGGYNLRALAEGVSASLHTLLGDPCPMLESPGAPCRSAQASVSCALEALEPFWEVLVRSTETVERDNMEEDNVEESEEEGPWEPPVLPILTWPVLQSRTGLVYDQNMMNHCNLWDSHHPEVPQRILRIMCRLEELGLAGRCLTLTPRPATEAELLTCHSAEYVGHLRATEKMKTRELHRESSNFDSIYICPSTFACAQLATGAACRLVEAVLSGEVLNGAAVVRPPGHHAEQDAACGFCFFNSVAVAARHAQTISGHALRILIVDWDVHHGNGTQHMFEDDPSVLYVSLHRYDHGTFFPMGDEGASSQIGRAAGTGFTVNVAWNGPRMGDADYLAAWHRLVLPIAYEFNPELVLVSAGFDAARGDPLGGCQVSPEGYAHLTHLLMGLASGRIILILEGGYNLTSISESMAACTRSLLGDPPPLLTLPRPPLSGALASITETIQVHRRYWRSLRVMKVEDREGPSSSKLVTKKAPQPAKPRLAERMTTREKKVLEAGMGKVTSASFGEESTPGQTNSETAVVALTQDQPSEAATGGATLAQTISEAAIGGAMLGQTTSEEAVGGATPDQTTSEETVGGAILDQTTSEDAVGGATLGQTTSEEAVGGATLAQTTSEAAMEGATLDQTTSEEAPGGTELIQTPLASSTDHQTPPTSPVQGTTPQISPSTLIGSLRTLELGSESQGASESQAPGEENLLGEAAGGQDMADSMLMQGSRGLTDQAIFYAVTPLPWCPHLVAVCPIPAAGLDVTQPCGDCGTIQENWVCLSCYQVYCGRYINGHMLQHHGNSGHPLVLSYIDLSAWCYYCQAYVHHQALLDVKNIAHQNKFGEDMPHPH
Method: as §2, §3

[3] = test system: human colon cancer HCT116 cells; assay: MTT assay of cell proliferation; format: cell-based; settings: HCT-116, 72 hours
Method: Two thousand (2,000) human colon cancer HCT116 cells (ATCC, Manassas, Va. were used in an MTT (3-[4,5-dimethylthiazol-2-yl]-2,5 diphenyl tetrazolium bromide) assay to quantitatively determine cell proliferation and cytotoxicity. Typically, HCT116 cells were plated into each well of the 96-well tissue culture plate and left overnight to attach to the plate. Compounds at various concentrations were added into the culture media (final DMSO concentration 1%) and incubated for 72 hours. MTT solution (obtained from Sigma as powder) was added and incubated with the cells for 4 hours at 37° C. in incubator with 5% CO2. During the incubation, viable cells convert MTT to a water-insoluble formazan dye. Solubilizing buffer (50% N,N-dimethylformamide, 20% SDS, pH 4.7) was added to cells and incubated for overnight at 37C in incubator with 5% CO2. Solubilized dye was quantitated by calorimetric reading at […] using a reference of […]. Optical density values were converted to cell number values by comparison to a standard growth curve for each cell line.

human HDAC-1 = target: T3, human HDAC-1 (Homo sapiens, UniProt Q13547); assay: histone deacetylase enzyme assay, HDAC-1; format: biochemical; settings: recombinant human enzyme, [3H]-acetylated histone substrate, 10 minutes; read-out: Enzyme IC50 (μM) HDAC1
T3 construct: made in house; host or cells: insect cells (baculovirus expression system)
T3 sequence (Q13547 whole entry): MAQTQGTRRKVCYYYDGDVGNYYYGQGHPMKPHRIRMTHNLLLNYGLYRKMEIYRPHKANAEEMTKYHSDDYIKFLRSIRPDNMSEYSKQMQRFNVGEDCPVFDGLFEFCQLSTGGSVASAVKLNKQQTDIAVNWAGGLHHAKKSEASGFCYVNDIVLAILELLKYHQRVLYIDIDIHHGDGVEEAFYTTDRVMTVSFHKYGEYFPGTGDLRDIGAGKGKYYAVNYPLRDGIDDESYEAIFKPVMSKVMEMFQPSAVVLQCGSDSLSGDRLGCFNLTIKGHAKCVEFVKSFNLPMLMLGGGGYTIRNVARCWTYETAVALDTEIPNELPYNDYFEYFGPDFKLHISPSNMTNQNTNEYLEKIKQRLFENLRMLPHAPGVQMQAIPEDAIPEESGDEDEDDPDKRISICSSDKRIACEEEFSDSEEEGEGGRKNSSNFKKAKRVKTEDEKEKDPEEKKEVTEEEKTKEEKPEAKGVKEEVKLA
Method: as §2, §3

A549 [4] = assay: tumor growth in mouse model, lung; format: in vivo, BALB/c nude mice; settings: 50 mg/kg body weight/day, ip
Method: (§4) Female BALB/c nude mice were obtained from Charles River Laboratories (Charles River, N.Y.) and used at age 8-10 weeks. Human prostate tumor cells (DU145, 2×10^6) or human colon cancer cells (HCT116; 2×10^6) or […] A549 2×106 were injected subcutaneously in the animal's flank and allowed to form solid tumors. Tumor fragments were serially passaged a minimum of three times, then approximately 30 mg tumor fragments were implanted subcutaneously through a small surgical incision under general anaesthesia. Small molecule inhibitor administration by intraperotineal or oral administration was initiated when the tumors reached a volume of 100 mm^3. For intraperotineal administration, small molecule inhibitors of HDAC (40-50 mg/kg body weight/day) were dissolved in 100% DMSO and administered daily intraperitoneally by injection. For oral administration, small molecule inhibitors of HDAC (40-50 mg/kg body weight/days) were dissolved in a solution containing 65% polyethylene glycol 400 (PEG 400 (Sigma-Aldridge, Mississauga, Ontario, CA, Catalogue No. P-3265), 5% ethanol, and 30% water. Tumor volumes were monitored twice weekly up to 20 days. Each experimental group contained at least 6-8 animals. Percentage inhibition was calculated using volume of tumor from vehicle-treated mice as controls.

[5] = test system: human colon cancer cells (HCT116); assay: tumor growth in mouse model, colon; format: in vivo, BALB/c nude mice; settings: 40 mg/kg body weight/day, po
Method: as §4

human HDAC-4 = target: T4, human HDAC-4 (Homo sapiens, UniProt P56524); assay: histone deacetylase enzyme assay, HDAC-4; format: biochemical; settings: recombinant human enzyme, [3H]-acetylated histone substrate, 2 hours; read-out: Enzyme IC50 (μM) HDAC4
T4 construct: Flag; made in house
T4 sequence (P56524 whole entry): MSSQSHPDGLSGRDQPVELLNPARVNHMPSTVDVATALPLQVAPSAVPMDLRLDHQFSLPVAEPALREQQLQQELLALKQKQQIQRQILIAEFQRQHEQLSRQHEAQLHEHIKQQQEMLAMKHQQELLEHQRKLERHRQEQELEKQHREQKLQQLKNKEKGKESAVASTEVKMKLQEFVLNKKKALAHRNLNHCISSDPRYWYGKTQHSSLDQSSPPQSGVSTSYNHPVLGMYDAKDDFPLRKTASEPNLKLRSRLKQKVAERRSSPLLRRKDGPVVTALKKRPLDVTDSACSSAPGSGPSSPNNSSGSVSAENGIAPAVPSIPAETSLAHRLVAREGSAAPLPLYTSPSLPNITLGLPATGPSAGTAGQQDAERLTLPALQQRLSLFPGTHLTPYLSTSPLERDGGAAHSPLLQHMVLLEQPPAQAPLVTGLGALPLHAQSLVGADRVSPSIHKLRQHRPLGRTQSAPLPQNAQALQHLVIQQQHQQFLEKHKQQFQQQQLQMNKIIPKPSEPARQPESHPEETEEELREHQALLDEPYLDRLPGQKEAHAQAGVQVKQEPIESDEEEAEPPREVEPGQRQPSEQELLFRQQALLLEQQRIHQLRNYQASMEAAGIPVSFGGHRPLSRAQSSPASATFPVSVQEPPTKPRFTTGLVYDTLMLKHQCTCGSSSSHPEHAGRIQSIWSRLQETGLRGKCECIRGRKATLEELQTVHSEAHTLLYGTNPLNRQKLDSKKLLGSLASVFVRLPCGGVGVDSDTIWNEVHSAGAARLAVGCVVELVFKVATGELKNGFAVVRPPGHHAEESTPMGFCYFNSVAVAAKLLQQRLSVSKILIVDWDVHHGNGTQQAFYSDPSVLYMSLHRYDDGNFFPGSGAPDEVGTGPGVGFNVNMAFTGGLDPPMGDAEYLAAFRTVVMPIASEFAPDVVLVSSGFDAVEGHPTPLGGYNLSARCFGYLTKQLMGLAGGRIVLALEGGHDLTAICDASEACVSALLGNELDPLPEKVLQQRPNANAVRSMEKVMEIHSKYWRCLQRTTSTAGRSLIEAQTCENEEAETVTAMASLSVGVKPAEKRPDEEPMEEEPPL
Method: Flag-tagged human HDAC-4 enzyme was produced in human embronic kidney 293 cells after transformation by the calcium phosphate precipitation method. Briefly, 293 cells were cultured in Dulbecco's Modified Eagle Medium (DMEM) containing 10% fetal bovine serum and antibiotics. Plasmid DNA encoding Flag-tagged human HDAC-4 was precipitated by ethanol and resuspend in sterile water. DNA-calcium precipitates, formed by mixing DNA, calcium choloride and 2× HEPES-buffered saline solution, were left on 293 cells for 12-16 hours. Cells were return to serum-contained. DMEM medium and harvested at 48 hour post transfection for purification of Flag-tagged HDAC-4 enzyme.
as §2
For the deacetylase assay, 20,000 cpm of an [^3H]-metabolically-labeled acetylated histone was used as a substrate. Histones were incubated with cloned recombinant human HDAC enzymes at 37° C. […] All assay conditions were pre-determined to be certain that each reaction was linear. Reactions were stopped by adding acetic acid (0.04 M, final concentration) and HCl (250 mM, final concentration). The mixture was extracted with ethyl acetate, and the released [^3H]-acetic acid was quantified by liquid scintillation counting. […]

HMEC = assay: apoptosis, Cell Death Detection ELISA, HMEC; format: cell-based, human; settings: OSDN, normal cells
Method: (§5) In order to determine the effect of HDAC OSDNs on cell growth and cell death through apoptosis, A549 or T24 cells, MDAmb231 cells, and HMEC cells (ATCC, Manassas, Va.) were treated with HDAC OSDNs as previously described.
(§6) For the apoptosis study, cells were analyzed using the Cell Death Detection ELISA^Plus kit (Roche Diagnostic GmBH, Mannheim, Germany) according to the manufacturer's directions. Typically, 10,000 cells were plated in 96-well tissue culture dishes for 2 hours before harvest and lysis. Each sample was analyzed in duplicate. ELISA reading was done using a MR700 plate reader (DYNEX Technology, Ashford, Middlesex, England) at 410 nm. The reference was set at 490 nm.

MDAmb231 [6] = assay: cell growth analysis (trypan blue cell count), MDAmb231; format: cell-based, human; settings: 50 nM, 72 hours
Method: as §1, §5
(§7) Cells were harvested and cell numbers counted by trypan blue exclusion using a hemocytometer. Percentage of inhibition was calculated as (100—AS cell numbers/control cell numbers)%.

T24 [7] = assay: cell growth analysis (trypan blue cell count), T24; format: cell-based, human; settings: 50 nM, 72 hours
Method: as §1, §5, §7

MDAmb231 [8] = assay: apoptosis, Cell Death Detection ELISA, MDAmb231; format: cell-based, human; settings: OSDN
Method: as §5, §6

A549 [9] = assay: cell growth analysis (trypan blue cell count), A549; format: cell-based, human; settings: 50 nM, 72 hours
Method: as §1, §5, §7

T24 [10] = assay: apoptosis, Cell Death Detection ELISA, T24; format: cell-based, human; settings: OSDN
Method: as §5, §6

A549 [11] = assay: apoptosis, Cell Death Detection ELISA, A549; format: cell-based, human; settings: OSDN
Method: as §5, §6

[12] = test system: p21 protein in A549 cells; assay: Western blot of p21 protein in A549 cells; format: cell-based, human; settings: FIG. 15
human HDAC-4 RNA = assay: antisense screen by Northern blot in T24 cells, HDAC-4; format: cell-based; settings: screened as above (T24 cells, 100 nM, 24 hours)
Method: Seventeen phosphorothioate ODNs containing sequences complementary to the 5′ or 3′ UTR of the human HDAC-4 gene (GenBank Accession No. AB006626) were screened as above. […] HDAC-4 MM1 and MM2 oligonucleotides were created as controls; compared to the antisense oligonucleotides, they each contain a 6-base mismatch.
as §1
Cells were harvested, and total RNAs were analyzed by Northern blot analysis. Briefly, total RNA was extracted using RNeasy miniprep columns (QIAGEN). […]

HDAC-7 AS: antisense oligonucleotide to human HDAC7, 5′-CTTCAGCCAGGATGCCCACA-3′ (SEQ ID NO:31) (sugars from the 5' end m4 d12 m4, all phosphorothioate, methylation of C and T or U not given here)
antisense activity to human HDAC-7 (RNA expression, Northern blot) (human HDAC-7 RNA): antisense activity

Nc1ccccc1NC(=O)/C=C/C#Cc1cccc(NS(=O)(=O)c2ccccc2)c1 [Compound 2]
H4-Ac [1]: 5 µM
Cell Cycle Arrest EC [2]: 8 µM
IC50 (human HDAC-3): 30 µM
IC50 (human HDAC-6): > 30 µM
EC50 [3]: 4 µM
IC50 (human HDAC-1): 3 µM
% inhibitor of tumor formation in vivo, lung (A549 [4]): 54%
% inhibitor of tumor formation in vivo, colon [5]: 53%
IC50 (human HDAC-4): 35 µM

HDAC-4 AS1: antisense oligonucleotide to human HDAC4, 5-GCTGCCTGCCGTGCCCACCC-3′ (SEQ ID NO:24) (sugars from the 5' end m4 d12 m4, all phosphorothioate, methylation of C and T or U not given here)
Apoptosis After 48 Hour Treatment HMEC (HMEC): − (< = 2x fold over non-specific background)
Growth Inhibition (AS vs. MM) MDAmb231 (MDAmb231 [6]): ++ (50-75% inhibition)
Growth Inhibition (AS vs. MM) T24 (T24 [7]): ++ (50-75% inhibition)
Apoptosis After 48 Hour Treatment MDAmb231 (MDAmb231 [8]): ++ (3-5X fold)
Growth Inhibition (AS vs. MM) A549 (A549 [9]): +++ (>75% inhibition)
Apoptosis After 48 Hour Treatment T24 (T24 [10]): + (2-3X fold)
Apoptosis After 48 Hour Treatment A549 (A549 [11]): +++ (5-8X fold)
expression of the p21 protein [12]: induces the expression of the p21 protein
antisense activity to human HDAC-4 (RNA expression, Northern blot) (human HDAC-4 RNA): antisense activity
